Source: the supplement of paper PMC11451515

Test system: SEM cells
Assay: cell viability relative to DMSO control; higher = less cytotoxic
Conditions: 48 h
Outline: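 NOMO1, SEM and P12-Ichikawa leukemia cells spent at least four passages adapting to each medium before use. They were seeded at 500 cells/well (NOMO1, SEM) or 1000 cells/well (P12-Ichikawa) in 5 μl in 1536-well plates and pin-dosed with library compounds in DMSO at 11 threefold steps from 47 μM down to 0.79 nM. After 48 h at 37°C, CellTiter-Glo One luminescence was read. Viability is reported as a percentage of the DMSO wells on each plate, with cell-free wells as background.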

[1] = HPLM + 10% dialyzed FBS, 0.000781 µM
[2] = HPLM + 10% dialyzed FBS, 0.00234 µM
[3] = HPLM + 10% dialyzed FBS, 0.00702 µM
[4] = HPLM + 10% dialyzed FBS, 0.0211 µM
[5] = HPLM + 10% dialyzed FBS, 0.0632 µM
[6] = HPLM + 10% dialyzed FBS, 0.19 µM
[7] = HPLM + 10% dialyzed FBS, 0.569 µM
[8] = HPLM + 10% dialyzed FBS, 1.71 µM
[9] = HPLM + 10% dialyzed FBS, 5.12 µM
[10] = HPLM + 10% dialyzed FBS, 15.4 µM
[11] = HPLM + 10% dialyzed FBS, 46.1 µM
[12] = RPMI 5 mM glucose + 10% FBS, 0.000781 µM
[13] = RPMI 5 mM glucose + 10% FBS, 0.00234 µM
[14] = RPMI 5 mM glucose + 10% FBS, 0.00702 µM
[15] = RPMI 5 mM glucose + 10% FBS, 0.0211 µM
[16] = RPMI 5 mM glucose + 10% FBS, 0.0632 µM
[17] = RPMI 5 mM glucose + 10% FBS, 0.19 µM
[18] = RPMI 5 mM glucose + 10% FBS, 0.569 µM
[19] = RPMI 5 mM glucose + 10% FBS, 1.71 µM
[20] = RPMI 5 mM glucose + 10% FBS, 5.12 µM
[21] = RPMI 5 mM glucose + 10% FBS, 15.4 µM
[22] = RPMI 5 mM glucose + 10% FBS, 46.1 µM
[23] = RPMI 5 mM glucose + 10% dialyzed FBS, 0.000781 µM
[24] = RPMI 5 mM glucose + 10% dialyzed FBS, 0.00234 µM
[25] = RPMI 5 mM glucose + 10% dialyzed FBS, 0.00702 µM
[26] = RPMI 5 mM glucose + 10% dialyzed FBS, 0.0211 µM
[27] = RPMI 5 mM glucose + 10% dialyzed FBS, 0.0632 µM
[28] = RPMI 5 mM glucose + 10% dialyzed FBS, 0.19 µM
[29] = RPMI 5 mM glucose + 10% dialyzed FBS, 0.569 µM
[30] = RPMI 5 mM glucose + 10% dialyzed FBS, 1.71 µM
[31] = RPMI 5 mM glucose + 10% dialyzed FBS, 5.12 µM
[32] = RPMI 5 mM glucose + 10% dialyzed FBS, 15.4 µM
[33] = RPMI 5 mM glucose + 10% dialyzed FBS, 46.1 µM

SMILES	cell viability [1] [%]	cell viability [2] [%]	cell viability [3] [%]	cell viability [4] [%]	cell viability [5] [%]	cell viability [6] [%]	cell viability [7] [%]	cell viability [8] [%]	cell viability [9] [%]	cell viability [10] [%]	cell viability [11] [%]	cell viability [12] [%]	cell viability [13] [%]	cell viability [14] [%]	cell viability [15] [%]	cell viability [16] [%]	cell viability [17] [%]	cell viability [18] [%]	cell viability [19] [%]	cell viability [20] [%]	cell viability [21] [%]	cell viability [22] [%]	cell viability [23] [%]	cell viability [24] [%]	cell viability [25] [%]	cell viability [26] [%]	cell viability [27] [%]	cell viability [28] [%]	cell viability [29] [%]	cell viability [30] [%]	cell viability [31] [%]	cell viability [32] [%]	cell viability [33] [%]
CC(=O)OCC(=O)[C@@]12OC(C)(C)O[C@@H]1C[C@H]3[C@@H]4C[C@H](F)C/5=C/C(=O)/C=C\[C@]5(C)[C@@]4(F)[C@@H](O)C[C@]23C	67.2	84.1	74.8	70.2	79.9	78.5	21.4	20.6	74.8	89.7	67.8	103	104	85.4	94.7	106	99.4	24.7	21.1	78.5	78.2	76.3	92.5	102	87.9	85.2	90	68.9	15.7	10.2	106	95.4	75.4
O=C(C1CC1)N1CC[C@@H](Cn2c(-c3ccc(-c4ccc5occc5c4)cc3)nc3cnccc32)C1	94.6	91.1	106	108	98.8	107	115	108	104	121	102	73.9	89.5	99.9	97.9	108	101	99.9	110	101	103	85.9	113	102	101	111	112	119	129	121	108	114	108
COc1cccc2c(NCc3ccccc3)nc(-n3c(N)nc4ccccc43)nc12	81.2	88.4	104	93.6	89.1	90.6	83.2	92.2	64.1	29.6	8.4	95.2	92.8	98.7	97.5	94.8	87.6	95	72.1	54.9	24.3	7.18	81.8	73.7	91.9	99.8	111	106	85.9	76.5	65.1	45.2	9.78
C[C@H]1[C@H](O)O[C@@H]2O[C@@]3(C)CC[C@H]4[C@H](C)CC[C@@H]1[C@@]24OO3	86.7	82.3	90.2	92.7	95.8	109	105	98.3	41.5	22.4	17.9	82.3	93	90.8	89.3	96.9	94.8	93.1	74.5	47.1	10.1	5.91	74.7	82.1	89	82.8	76	111	89.8	87.1	17.6	8.87	8.68
C=CC(=O)Nc1cccc(Oc2nc(Nc3ccc(N4CCN(C)CC4)cc3OC)ncc2Cl)c1	58.4	72.7	56.4	65.8	74	81.1	72.3	68.5	33.2	48	13.3	80.4	89.2	60.5	88.2	94.2	91.2	56.4	65.3	22.6	41.6	5.05	62.5	69.8	52.6	58.2	70.8	72.9	64.1	42.3	24.1	41.8	18
COc1ccc(CC2c3cc(OC)c(OC)cc3CC[N+]2(C)CCC(=O)OCCCCCOC(=O)CC[N+]2(C)CCc3cc(OC)c(OC)cc3C2Cc2ccc(OC)c(OC)c2)cc1OC (stereo not drawn)	81.2	80.8	92.9	98.4	80.3	94	103	101	97.1	22.6	88	81	77.6	94	78.5	81.1	99.2	91.2	102	92.1	13.2	85.1	75	73.3	93.8	96	79.9	93.8	104	103	91.1	22.1	80.2
COC/1=C/[C@@H]2[C@@H]3CC4=C(C(=C(OC)C=C4)O)[C@]2(CCN3C)CC1=O	116	121	130	122	133	139	135	119	128	115	129												106	128	121	116	135	139	146	127	122	137	125
FC(F)(F)C1=CC=C2C(SCCCCCO\C3=C\O\C(CN4CCOCC4)=C/C3=O)=CC=NC2=C1	92.4	106	107	106	108	115	111	119	112	106	96.2	66.6	74.4	69	67.2	63.7	72.9	77.8	65.4	66.1	69.4	61.9	112	113	104	110	102	112	115	110	99	102	85.7
